Where “and” joins values, the source holds several entries; their conditions need not be identical. Identical values can stand only once.
Experiments:
Format in all cases: in vivo
[1] = test system: 60% high fat Paigen diet induced NASH mouse model; assay: Short-term Paigen-diet NASH mouse model: liver Oil Red O staining; details: 21 days
Method: (§1) To investigate whether Compound #37 prevents the development of pathology associated with NASH and steatosis in an acute exploratory disease model, a study was conducted using a diet-induced acute liver steatosis model in mice. As described below, in this study, C57BL/6J mice were initiated on the Paigen diet and simultaneously treated with Compound #37 (5, 20, and 40 mg/kg/day) or vehicle control (20% HPβCD 10 mL/kg/day) by oral gavage for 21 days.
(§2) After acclimation, 8-week old male C57Bl/6J mice (Charles River) weighing about 25 g were randomized in 4 groups according their body weight and treated once daily around noon by oral gavage with vehicle, or Compound #37 at various for 21 days as follows: Group 1: vehicle-20% (2-hydroxypropyl)-β-cyclodextrin (HP-β-CD) (n=10); Group 2: Compound #37, 5 mg/kg (n=10) Group 3: Compound #37, 20 mg/kg (n=10) Group 4: Compound #37, 40 mg/kg (n=10). During the treatment period, body weight and food intake (measured over 24h) were measured 3 times per week and once a week, respectively. During the acclimation, all mice were fed a standard diet (Special Diets Services RM1 (E), product no. 801492) and tap water ad libitum. After the acclimation period, mice were fed until the end of the experiment with a 60% high fat Paigen diet (60 kcal % fat, 1.25% cholesterol, and 0.5% cholate; D11061901, Research Diet) and tap water ad libitum.
One 0.5 cm^3 piece of liver was frozen in OCT in isopentane and stored at −80° C. for neutral lipid coloration with quantification to evaluate accumulation of neutral lipids in the liver. One section (thickness 5-7 μm) per block was deposited on superfrost+slides for Red Oil staining. Red Oil-stained slides were digitalized at ×20 with the Nanozoomer 2.0 HT. Red Oil labeling was quantified (surface, density): the stained slides were analyzed using an image. All the samples were analyzed within the same range of labeling intensity (0-130), allowing comparison between animals. The intensity scale ranged from 0 to 255 grey levels, in which 0 is the value of a black pixel, and 255 is the value of a white pixel. The staining intensity was calculated as the mean intensity of each pixel composing the labeling signal. For each slide, the percentage (%) of labeling was also calculated: %=(Surface of labeling*100)/section area.

SREBP1C = assay: DIN mouse model: hepatic SREBP1C gene expression; design: key to 2^DDct: expression relative to vehicle group, normalized to 18S; details: 20 mg/kg group; for 18S: Gene Expression: SREBP1C table, 18S reference; for 2^DDct / DDct / Dct / SREBP1C: Gene Expression: SREBP1C
Method: (§3) Gene expression analysis. Hepatic expression levels of genes involved in lipid metabolism (FAS, SREBP1, ACC1, SCD1), cholesterol metabolism (HMG-CoAR, LDLR), SREBP proteolysis (SCAP, INSIG1), ER stress (PERK), oxidative stress (NRF2), inflammation (MCP-1), and fibrosis (collagen 1α1) were quantified by RTqPCR. Expression level was normalized to 18S gene expression and relative expression to vehicle group was calculated with the […] method.
Male C57Bl/6J mice (8 weeks old) were housed in enriched ventilated cages (31×12.5×12.7 cm) throughout the experimental phase. Animals' cages litters were changed at least once a week. Animal were housed 5 per cage on inverted 12-hour light cycle (at 09:00 am lights off), 22±2° C. and 55±10% relative humidity. The acclimation period was 20 days. During the acclimation period, all mice were fed a standard diet (RM1 (E) 801492, SDS) and tap water ad libitum. After the acclimation period, mice were fed with the DIN diet (60% fat, cholesterol enriched) and fructose-enriched tap water ad libitum until the end of the experiment.
At 6 weeks of diet, mice were 4-hour fasted (09:00 am to 1:00 pm) and blood (150 μl/EDTA) was collected at 01:00 pm by retro-orbital bleeding under isoflurane anesthesia. Mice were then allocated in 2 homogenous groups (n=12/group) according to their plasma levels of ALT (average levels: 685U/L), AST (average levels: 627U/L) and HOMA-IR index (average value: 4.7), into 2 homogenous groups (see values at day 0 in Tables 15A and 15B ALT/AST and Tables 16A and 16B for HOMA-IR). Mice were then treated once daily by oral gavage with vehicle (Group 1) or Compound #37 at 20 mg/kg (Group 2) for 70 days.
Hepatic expression levels of genes involved in lipid (FAS, SREBP1, ACC1, SCD1), cholesterol metabolism (HMG-CoAR, LDLR), in SREBP proteolysis (SCAP, INSIG1), in ER stress (PERK), oxidative stress (NRF2), and inflammation (MCP-1) were not changed. However, expression of collagen 1α1, involved in liver fibrosis, was reduced by 66% in mice treated with Compound #37 (p<0.05 vs. vehicle).

MCP-1 = assay: Short-term Paigen-diet NASH mouse model: hepatic MCP-1 gene expression (RT-qPCR); design: key to MCP-1 gene expression: 2DDct: expression relative to vehicle group, normalized to 18S (2^-ΔΔCt); key to MCP-1 gene expression: DDct: ΔCt (vs 18S) relative to vehicle group; details: 21 days
Method: as §1
as §2, with “([…])” for “(n=10) Group 3: Compound #37, 20 mg/kg (n=10)”
as §3

SMILES: CC(C)Cc1cc(-c2nc(-c3ccc(NS(=O)(=O)C(F)(F)F)cc3Cl)cs2)ccn1 [Compound 37, N-(3-chloro-4-(2-(2-isobutylpyridin-4-yl)thiazol-4-yl)phenyl)-1,1,1-trifluoromethanesulfonamide]
- Liver O red Oil staining, % labeling ([1]; 5 mg/kg p.o. daily, group mean): 1.50%
- Liver O red Oil staining, % labeling ([1]; 5 mg/kg p.o. daily, individual animals): 2.08% and 2.02% and 1.19% and 2.18% and 1.64% and 1.09% and 1.16% and 1.50% and 0.70% and 1.39%
- Liver O red Oil staining, % labeling ([1]; 20 mg/kg p.o. daily, group mean): 0.93%
- Liver O red Oil staining, % labeling ([1]; 20 mg/kg p.o. daily, individual animals): 1.53% and 0.81% and 0.29% and 1.11% and 0.92% (2×)
- 18S (SREBP1C; individual animal, 20 mg/kg): 12.55 (2×) and 12.84 and 12.43 and 12.35 (2×) and 12.59 and 11.73 and 12.51 and 11.5 and 11.55
- 18S (SREBP1C; mean, n 11): 12.3
- 2^DDct (SREBP1C; individual animal): 1.30 and 1.21 and 0.41 and 0.49 and 0.69 and 1.10 and 0.99 and 1.37 and 0.36 and 0.47 and 2.13
- DDct (SREBP1C; individual animal): −0.38 and −0.27 and 1.30 and 1.04 and 0.54 and −0.14 and 0.01 and −0.45 and 1.46 and 1.10 and −1.09
- Dct (SREBP1C; individual animal): 12.98 and 13.09 and 14.66 and 14.4 and 13.9 and 13.22 and 13.37 and 12.91 and 14.82 and 14.46 and 12.27
- SREBP1C (SREBP1C; individual animal): 25.53 and 25.64 and 27.5 and 26.83 and 26.25 and 25.81 and 25.1 and 25.42 and 26.32 and 26.01 and 24.62
- 2^DDct (SREBP1C; mean, n 11): 0.96
- DDct (SREBP1C; mean, n 11): 0.28
- Dct (SREBP1C; mean, n 11): 13.6
- SREBP1C (SREBP1C; mean, n 11): 25.9
- MCP-1 gene expression: 2DDct (MCP-1; 5 mg/kg, group mean, n 10): 0.74
- MCP-1 gene expression: DDct (MCP-1; 5 mg/kg, group mean, n 10): 0.62
- MCP-1 gene expression: Dct (MCP-1; 5 mg/kg, group mean, n 10): 13.9
- MCP-1 gene expression: MCP-1 (MCP-1; 5 mg/kg, group mean, n 10): 26.2
- MCP-1 gene expression: 2DDct (MCP-1; 5 mg/kg, individual animals): 1.08 and 0.98 and 0.28 and 1.4 and 0.5 and 0.46 and 0.85 and 1.04 and 0.48 and 0.33
- MCP-1 gene expression: DDct (MCP-1; 5 mg/kg, individual animals): −0.11 and 0.03 and 1.82 and −0.49 and 0.99 and 1.11 and 0.24 and −0.06 and 1.07 and 1.59
- MCP-1 gene expression: Dct (MCP-1; 5 mg/kg, individual animals): 13.2 and 13.36 and 15.15 and 12.84 and 14.32 and 14.44 and 13.57 and 13.27 and 14.4 and 14.92
- MCP-1 gene expression: MCP-1 (MCP-1; 5 mg/kg, individual animals): 26.68 and 26.47 and 26.76 and 26.19 and 26.35 and 27.79 and 25.17 and 25.06 and 25.54 and 26.04
- MCP-1 gene expression: 2DDct (MCP-1; 20 mg/kg, group mean, n 6): 2.15
- MCP-1 gene expression: DDct (MCP-1; 20 mg/kg, group mean, n 6): −0.5
- MCP-1 gene expression: Dct (MCP-1; 20 mg/kg, group mean, n 6): 12.8
- MCP-1 gene expression: MCP-1 (MCP-1; 20 mg/kg, group mean, n 6): 25
- MCP-1 gene expression: 2DDct (MCP-1; 20 mg/kg, individual animals): 1.27 and 2.99 and 4.08 and 3.73 and 0.54 and 0.26
- MCP-1 gene expression: DDct (MCP-1; 20 mg/kg, individual animals): −0.35 and −1.58 and −2.03 and −1.9 and 0.88 and 1.95
- MCP-1 gene expression: Dct (MCP-1; 20 mg/kg, individual animals): 12.98 and 11.75 and 11.3 and 11.43 and 14.21 and 15.28
- MCP-1 gene expression: MCP-1 (MCP-1; 20 mg/kg, individual animals): 25.89 and 24.04 and 23.5 and 24.46 and 25.7 and 26.54

— patent US10183015B2, “Heterocyclic compounds and methods of use” (Medivation Technologies LLC, priority 2015, dated 2019)
